The numbers were not newly measured in patent US20220251295A1 (DYNAMIC BIOLOGICS INC., priority 2019, published 2022), which cites them from elsewhere.

Molecules are shown by their SMILES.

The conditions of series [1]: levodopa alone.
For series [2] the following is noted: administered with levodopa.
The conditions of series [3]: Phase III clinical trials.

Turning to `N[C@@H](Cc1ccc(O)c(O)c1)C(=O)O` [levodopa, (S)-2-amino-3-(3,4-dihydroxyphenyl)propanoic acid], the “Plasma half-life of levodopa” value in series [1] is roughly 50 min.
Take `C[C@@](Cc1ccc(O)c(O)c1)(NN)C(=O)O` [carbidopa]: in series [2], the “reduction of the amount of levodopa required to produce a given response” value is 75%.
With `CCOC(=O)[C@@H](N)Cc1ccc(O)c(O)c1` [Etilevodopa], the “efficacy compared with Levodopa” value in series [3] is on record as “less efficacious than Levodopa”.
